Laboratory results as given in patent US11433090B2, “mTOR-inhibitor-containing medicine for treating or preventing ophthalmic symptoms, disorders, or diseases, and application thereof” (The Doshisha, priority 2017, dated 2022).

How the values were obtained:
[1] = tested on: S6K; assay: Western blot of S6K phosphorylation after TGF-β2 stimulation in iFECD; format: cell-based, human; conditions: 3 pmol mTOR siRNA, FIG. 6
Method: (§1) The medium was removed from a culture dish in which iFECDs were being cultured, and the cells were supplemented with 1×PBS (−) that was preheated to 37° C., and were washed. This was repeated twice. The cells were supplemented again with 1×PBS (−) and incubated for 3 minutes at 37° C. (5% CO2). After removing the PBS (−), the cells were supplemented with 0.05% Trypsin-EDTA (Nacalai Tesque, 32778-34) and incubated for 5 minutes at 37° C. (5% CO2). The cells were then suspended in a medium, and collected by centrifugation at 1500 rpm for 3 minutes. DMEM (Nacalai Tesque, 08456-36)+10% FBS (Biowest, S1820-500)+1% P/S (Nacalai Tesque, 26252-94) was used as the medium.
(§2) iFECDs were seeded on a 12-well plate at a ratio of 7×10^4 cells per well and cultured for 24 hours at 37° C. (5% CO2) (DMEM+10% FBS+1% P/S was used as the medium). After 24 hours, the medium was removed. Rapamycin was added to culture the cells for 24 hours. (DMEM+2% FBS+1% P/S was used as the medium). After 24 hours, the medium was removed. A medium containing 10 ng/ml of Recombinant Human TGF-β2 (Wako, 200-19911) and rapamycin was added to culture the cells for 24 hours. […]
8 μg of the extracted protein was separated by SDS-PAGE and transferred onto a nitrocellulose membrane. […] The detected band strength was analyzed with a lumino image analyzer LAS-4000 mini (Fuji Film) and ImageQuant™ software (GE Healthcare). […]

[2] = tested on: fibronectin; assay: Western blot of fibronectin production induced by TGF-β2 in iFECD; format: cell-based, human; conditions: 3 pmol mTOR siRNA, then TGF-β2 10 ng/ml 24 h, FIG. 9
Method: as §1
as §2, with “6-well” for “12-well”, “2×10^5” for “7×10^4”
5 μg of the extracted protein was separated by SDS-PAGE and transferred onto a nitrocellulose membrane. […] The detected band strength was analyzed with a lumino image analyzer LAS-4000 mini (Fuji Film) and ImageQuant™ software (GE Healthcare). […]

## mTOR siRNA: siRNA against mTOR gene (Ambion, AS026M0L); sense strand SEQ ID NO: 1, antisense strand SEQ ID NO: 2 (sense CAUUCGCAUUCAGUCCAUATT; antisense UAUGGACUGAAUGCGAAUGAT; chemistry not given here)
[1]
  phosphorylation of S6K at protein level, western blot: suppressed
[2]
  production of fibronectin induced by TGF-β2, western blot: hardly observed
